# pIC50: −log10 of the molar value.
# Test system: HT-29
# Experiment: Cytotoxicity against ATM proficient human HT-29 cells assessed as reduction in cell viability incubated for 72 hrs by MTT assay
# Assay type: functional, cell-based
# Conditions: HT-29, 72 h
row,SMILES,pIC50
1,CC(C)n1c(=O)n(C)c2cnc3cc(F)c(-c4ccc(OCCCN5CCCCC5)nc4)cc3c21 [AZD-1390],< 5.00

# Biological target: Serine/threonine-protein kinase ATR (Homo sapiens, UniProt Q13535)
# Experiment: Inhibition of human recombinant full length ATR using GST-cMyc-p53 as substrate incubated for 40 mins in presence of ATP by HTRF assay
# Conditions: not given
# Sequence of Serine/threonine-protein kinase ATR (Q13535 whole entry): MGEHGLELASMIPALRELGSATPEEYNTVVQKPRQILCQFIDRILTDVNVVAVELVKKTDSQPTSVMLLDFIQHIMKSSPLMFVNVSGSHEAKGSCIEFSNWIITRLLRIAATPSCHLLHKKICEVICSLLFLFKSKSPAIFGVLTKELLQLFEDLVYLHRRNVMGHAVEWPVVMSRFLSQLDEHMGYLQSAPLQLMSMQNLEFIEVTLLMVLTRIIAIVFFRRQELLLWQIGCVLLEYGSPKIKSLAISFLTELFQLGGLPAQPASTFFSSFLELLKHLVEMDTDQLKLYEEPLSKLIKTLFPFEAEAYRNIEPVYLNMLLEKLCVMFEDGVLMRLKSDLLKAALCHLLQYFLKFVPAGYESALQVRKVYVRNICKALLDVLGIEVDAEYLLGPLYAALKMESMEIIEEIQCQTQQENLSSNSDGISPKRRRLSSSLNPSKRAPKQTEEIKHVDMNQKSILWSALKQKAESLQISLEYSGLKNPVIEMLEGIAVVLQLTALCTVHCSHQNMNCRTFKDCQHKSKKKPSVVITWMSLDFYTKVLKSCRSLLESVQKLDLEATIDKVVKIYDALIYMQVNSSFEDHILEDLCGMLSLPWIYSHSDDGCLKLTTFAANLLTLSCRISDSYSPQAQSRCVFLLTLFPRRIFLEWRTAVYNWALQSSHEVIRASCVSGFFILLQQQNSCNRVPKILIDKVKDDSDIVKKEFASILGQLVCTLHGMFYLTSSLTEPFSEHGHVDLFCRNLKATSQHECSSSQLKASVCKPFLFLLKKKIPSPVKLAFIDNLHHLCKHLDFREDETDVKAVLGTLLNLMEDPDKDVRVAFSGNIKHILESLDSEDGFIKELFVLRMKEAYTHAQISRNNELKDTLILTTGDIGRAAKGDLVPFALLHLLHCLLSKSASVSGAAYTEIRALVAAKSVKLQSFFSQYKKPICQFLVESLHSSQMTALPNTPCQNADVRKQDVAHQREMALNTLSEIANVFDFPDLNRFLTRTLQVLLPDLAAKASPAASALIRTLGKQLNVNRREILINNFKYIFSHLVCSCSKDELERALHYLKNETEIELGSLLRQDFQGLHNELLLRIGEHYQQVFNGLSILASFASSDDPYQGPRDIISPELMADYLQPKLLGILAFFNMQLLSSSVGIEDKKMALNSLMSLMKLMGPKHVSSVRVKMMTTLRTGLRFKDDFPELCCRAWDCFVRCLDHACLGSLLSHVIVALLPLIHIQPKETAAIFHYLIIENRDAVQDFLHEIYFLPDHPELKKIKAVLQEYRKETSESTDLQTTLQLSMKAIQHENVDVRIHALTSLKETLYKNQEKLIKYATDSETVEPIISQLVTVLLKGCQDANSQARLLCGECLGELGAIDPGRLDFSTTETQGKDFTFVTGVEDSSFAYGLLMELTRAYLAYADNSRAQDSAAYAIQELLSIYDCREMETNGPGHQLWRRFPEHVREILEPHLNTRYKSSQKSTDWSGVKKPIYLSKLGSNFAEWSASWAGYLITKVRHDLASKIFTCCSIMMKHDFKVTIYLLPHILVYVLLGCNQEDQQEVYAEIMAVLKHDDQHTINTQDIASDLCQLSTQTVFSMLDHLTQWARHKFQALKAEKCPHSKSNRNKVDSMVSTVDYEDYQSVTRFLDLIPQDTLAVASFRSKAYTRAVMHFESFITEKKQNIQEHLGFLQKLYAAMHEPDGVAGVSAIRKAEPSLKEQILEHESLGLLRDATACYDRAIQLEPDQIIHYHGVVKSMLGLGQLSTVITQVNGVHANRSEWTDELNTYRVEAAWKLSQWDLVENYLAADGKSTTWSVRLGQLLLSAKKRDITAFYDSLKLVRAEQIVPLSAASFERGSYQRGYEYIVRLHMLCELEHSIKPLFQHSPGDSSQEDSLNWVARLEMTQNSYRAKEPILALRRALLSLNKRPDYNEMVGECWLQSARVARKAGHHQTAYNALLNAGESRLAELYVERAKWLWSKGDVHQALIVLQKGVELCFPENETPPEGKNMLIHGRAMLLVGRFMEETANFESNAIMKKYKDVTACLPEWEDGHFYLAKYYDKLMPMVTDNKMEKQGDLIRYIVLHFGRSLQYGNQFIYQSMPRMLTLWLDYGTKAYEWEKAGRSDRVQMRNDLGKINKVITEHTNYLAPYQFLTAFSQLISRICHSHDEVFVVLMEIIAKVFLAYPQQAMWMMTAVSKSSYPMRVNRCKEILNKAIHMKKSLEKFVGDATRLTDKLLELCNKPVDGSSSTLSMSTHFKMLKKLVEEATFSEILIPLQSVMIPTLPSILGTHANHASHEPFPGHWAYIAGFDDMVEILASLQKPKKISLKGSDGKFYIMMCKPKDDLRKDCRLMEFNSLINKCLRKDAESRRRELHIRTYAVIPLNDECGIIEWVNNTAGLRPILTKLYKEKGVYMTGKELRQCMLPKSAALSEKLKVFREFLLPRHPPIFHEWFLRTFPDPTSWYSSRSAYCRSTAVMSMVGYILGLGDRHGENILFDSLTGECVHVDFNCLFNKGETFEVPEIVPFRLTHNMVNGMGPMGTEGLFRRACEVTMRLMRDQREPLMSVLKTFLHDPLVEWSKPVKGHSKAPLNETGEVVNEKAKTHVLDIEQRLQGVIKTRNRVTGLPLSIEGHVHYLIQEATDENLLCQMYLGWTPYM
row,SMILES,pIC50
1,CCOC(c1ccc2nc(-c3cccc4[nH]ccc34)nc(N3CCOC[C@H]3C)c2c1)n1cccn1 (some centres not stated),6.05
2,Cc1ccc2[nH]ncc2c1-c1nc(N2CCOC[C@H]2C)c2cc(-c3ccnn3C)ccc2n1,< 5.00
3,C[C@@H]1COCCN1c1nc(-c2cc[nH]n2)nc2ccc(-c3ccnn3C)cc12,< 5.00
4,Cn1nccc1-c1ccc2nc(-c3cccc4[nH]ccc34)nc(N3CCC[C@H](N)C3)c2c1,< 5.00
5,Cn1nccc1-c1ccc2nc(-c3cccc4[nH]ccc34)nc(N3CCN(S(C)(=O)=O)CC3)c2c1,< 5.00
6,C[C@@H]1COCCN1c1nc(-c2cnn(C3CCNCC3)c2)nc2ccc(-c3ccnn3C)cc12,< 5.00
7,Cn1nccc1-c1ccc2nc(-c3cccc4[nH]ccc34)nc(N3CC4CCC(C3)O4)c2c1,7.35
8,COC(=O)C1CN(c2nc(-c3cccc4[nH]ccc34)nc3ccc(-c4ccnn4C)cc23)CCO1 (configuration not stated),< 5.00
9,Cn1nccc1-c1ccc2nc(-c3cccc4[nH]ccc34)nc(N3C4CCC3COC4)c2c1,7.60
10,C[C@@H]1COCCN1c1nc(-c2c[nH]c3ncc(F)cc23)nc2ccc(-c3ccnn3C)cc12,5.45
11,Cn1nccc1-c1ccc2nc(-c3cccc4[nH]ccc34)nc(N3CCC[C@@H](N)C3)c2c1,< 5.00
12,C[C@@H]1COCCN1c1nc(-c2cccc3[nH]ccc23)nc2ccc(-c3ccc(N4CCOCC4)nc3)cc12,6.24
13,Cc1noc(C)c1-c1ccc2nc(-c3cccc4[nH]ccc34)nc(N3CCOC[C@H]3C)c2c1,7.49
14,C[C@@H]1COCCN1c1nc(-c2cn[nH]c2)nc2ccc(-c3ccnn3C)cc12,< 5.00
15,C[C@@H]1COCCN1c1nc(-c2cccc3[nH]ccc23)nc2ccc(-c3ccc(C#N)nc3)cc12,< 5.00
16,C[C@@H]1CN(c2nc(-c3cccc4[nH]ccc34)nc3ccc(-c4ccnn4C)cc23)C[C@H](C)O1,< 5.00
17,C[C@@H]1COCCN1c1nc(-c2cnc3[nH]ccc3c2)nc2ccc(-c3ccnn3C)cc12,5.75

# Next, values leading:
row,pIC50,SMILES
1,5.53,C[C@@H]1COCCN1c1nc(-c2cccc3[nH]ccc23)nc2ccc(-c3ccccc3)cc12
2,6.15,C[C@@H]1COCCN1c1nc(-c2cccc3[nH]ccc23)nc2ccc(-c3cnn(C)c3)cc12
3,7.08,CC(C)n1nccc1-c1ccc2nc(-c3cccc4[nH]ccc34)nc(N3CCOC[C@H]3C)c2c1
4,5.55,C[C@@H]1COCCN1c1nc(-c2cccc3[nH]ccc23)nc2ccc(-c3ccsc3)cc12
5,6.36,C[C@@H]1COCCN1c1nc(-c2cccc3[nH]ccc23)nc2ccc(-c3ccnn3C3CCCCO3)cc12 (some centres not stated)
6,6.15,C[C@H]1COCCN1c1nc(-c2cccc3[nH]ccc23)nc2ccc(-c3ccnn3C)cc12
7,6.54,C[C@@H]1COCCN1c1nc(-c2cccc3[nH]ccc23)nc2ccc(-c3cccn3C)cc12
8,6.56,C[C@@H]1COCCN1c1nc(-c2cccc3[nH]ccc23)nc2ccc(-c3ccncc3)cc12
9,7.05,Cn1nccc1-c1ccc2nc(-c3cccc4[nH]ccc34)nc(N3CCOCC3)c2c1
10,< 5.00,Cn1nccc1-c1ccc2nc(-c3cccc4[nH]ccc34)nc(N3CCC(N)C3)c2c1 (configuration not stated)
11,7.74,CCn1nccc1-c1ccc2nc(-c3cccc4[nH]ccc34)nc(N3CCOC[C@H]3C)c2c1
12,6.71,C[C@@H]1COCCN1c1nc(-c2cccc3[nH]ccc23)nc2ccc(-c3ccc(=O)n(C)c3)cc12
13,5.63,C[C@@H]1COCCN1c1nc(-c2cccc3[nH]ccc23)nc2ccc(-c3ccoc3)cc12
14,6.67,C[C@@H]1COCCN1c1nc(-c2c[nH]c3ccccc23)nc2ccc(-c3ccnn3C)cc12
15,5.61,Cc1ncc(-c2ccc3nc(-c4cccc5[nH]ccc45)nc(N4CCOC[C@H]4C)c3c2)s1
16,< 5.00,Cn1nccc1-c1ccc2nc(-c3cccc4[nH]ccc34)nc(N3CC[C@H](N)C3)c2c1
17,< 5.00,C[C@@H]1CNCCN1c1nc(-c2cccc3[nH]ccc23)nc2ccc(-c3ccnn3C)cc12
18,6.22,Cn1nccc1-c1ccc2nc(-c3cccc4[nH]ccc34)nc(N3CC4CC3CO4)c2c1 (configuration not stated)
19,5.48,C[C@@H]1COCCN1c1nc(-c2c[nH]c3ncccc23)nc2ccc(-c3ccnn3C)cc12
20,6.94,C[C@@H]1COCCN1c1nc(-c2ccnc3[nH]ccc23)nc2ccc(-c3ccnn3C)cc12
21,7.02,C[C@@H]1COCCN1c1nc(-c2cc(F)cc3[nH]ccc23)nc2ccc(-c3ccnn3C)cc12
22,7.48,C[C@@H]1COCCN1c1nc(-c2cccc3[nH]ccc23)nc2ccc(-c3cncn3C)cc12
23,< 5.00,C[C@@H]1COCCN1c1nc(-c2cc(C(F)(F)F)cc3[nH]ccc23)nc2ccc(-c3ccnn3C)cc12
24,6.74,C[C@@H]1COCCN1c1nc(-c2cccc3[nH]ccc23)nc2ccc(-c3cccnc3)cc12
